# Values quoted from earlier work in patent US5612056A, “Transdermal formulations” (priority 1991, dated 1997).
# How the values were obtained:
# [1] = system: blood cholinesterase; settings: human, in vivo, iv
# [2] = guinea pig, in vivo
compound,measurement,setting,value
CNC(=O)Oc1ccc2c(c1)[C@]1(C)CCN(C)[C@@H]1N2C [physostigmine],blood cholinesterase inhibition,[1],approximately 30%
same,plasma half life,[2],40 to 50 min
